US8426437B2, “Pyrroloquinoline derivatives and their use as protein kinases inhibitors” (Pierre Fabre Medicament, priority 2005, dated 2013)
Each block holds one molecule with its values, some of them ahead of it.

Assays:
Assay type in all cases: biochemical
[1] = target: T1, Aurora-A (h) (Homo sapiens, UniProt O14965); test: Upstate kinase panel: Aurora-A
T1 construct: purchased Upstate
T1 sequence (O14965 1-403): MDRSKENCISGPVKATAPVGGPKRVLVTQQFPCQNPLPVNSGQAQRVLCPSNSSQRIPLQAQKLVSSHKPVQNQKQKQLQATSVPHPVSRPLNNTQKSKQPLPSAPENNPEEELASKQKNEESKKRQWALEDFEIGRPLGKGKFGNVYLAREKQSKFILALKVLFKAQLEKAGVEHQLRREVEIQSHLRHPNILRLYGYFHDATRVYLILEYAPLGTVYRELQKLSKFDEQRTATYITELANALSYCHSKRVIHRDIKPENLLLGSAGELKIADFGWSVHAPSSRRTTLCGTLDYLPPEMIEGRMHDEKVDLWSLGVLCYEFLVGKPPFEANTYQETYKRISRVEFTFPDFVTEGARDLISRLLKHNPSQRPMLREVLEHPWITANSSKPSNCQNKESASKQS
Method: (§1) These kinases are produced by Upstate and screened according to the respective protocols indicated by the supplier (http://www.upstate.com/features/kp_protocols.asp). Examples 1, 12, 166 and 238 were tested at a concentration of 20 μM, 10 μM, 1 μM and 1 μM respectively in the presence of 10 μM of ATP for examples 1 and 12 and at the concentrations of ATP shown in parentheses for examples 166 and 238. The results shown in Table VII correspond to percentage inhibition of the kinase tested in the presence of the compound, relative to a control effected without the compound.

[2] = target: T2, cSRC (h) (Homo sapiens, UniProt P12931); test: Upstate kinase panel: cSRC
T2 construct: purchased Upstate
T2 sequence (P12931 whole entry): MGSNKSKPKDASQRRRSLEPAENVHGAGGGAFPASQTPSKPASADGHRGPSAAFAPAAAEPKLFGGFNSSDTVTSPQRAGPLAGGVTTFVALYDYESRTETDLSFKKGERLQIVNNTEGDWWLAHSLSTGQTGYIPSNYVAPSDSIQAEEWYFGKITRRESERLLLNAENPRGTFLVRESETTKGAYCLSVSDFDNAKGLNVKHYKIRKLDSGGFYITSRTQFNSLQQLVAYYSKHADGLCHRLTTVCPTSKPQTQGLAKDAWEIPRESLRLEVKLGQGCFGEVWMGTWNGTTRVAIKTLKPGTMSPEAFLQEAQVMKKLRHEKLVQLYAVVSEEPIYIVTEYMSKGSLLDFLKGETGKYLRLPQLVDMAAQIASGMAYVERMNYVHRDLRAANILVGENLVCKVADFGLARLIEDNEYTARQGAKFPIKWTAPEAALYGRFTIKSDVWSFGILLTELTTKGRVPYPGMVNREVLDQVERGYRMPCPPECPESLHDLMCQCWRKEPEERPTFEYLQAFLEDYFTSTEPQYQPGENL
Method: as §1

[3] = target: T3, EGFR (h) (Homo sapiens, UniProt P00533); test: Upstate kinase panel: EGFR
T3 construct: purchased Upstate
T3 sequence (P00533 25-1210): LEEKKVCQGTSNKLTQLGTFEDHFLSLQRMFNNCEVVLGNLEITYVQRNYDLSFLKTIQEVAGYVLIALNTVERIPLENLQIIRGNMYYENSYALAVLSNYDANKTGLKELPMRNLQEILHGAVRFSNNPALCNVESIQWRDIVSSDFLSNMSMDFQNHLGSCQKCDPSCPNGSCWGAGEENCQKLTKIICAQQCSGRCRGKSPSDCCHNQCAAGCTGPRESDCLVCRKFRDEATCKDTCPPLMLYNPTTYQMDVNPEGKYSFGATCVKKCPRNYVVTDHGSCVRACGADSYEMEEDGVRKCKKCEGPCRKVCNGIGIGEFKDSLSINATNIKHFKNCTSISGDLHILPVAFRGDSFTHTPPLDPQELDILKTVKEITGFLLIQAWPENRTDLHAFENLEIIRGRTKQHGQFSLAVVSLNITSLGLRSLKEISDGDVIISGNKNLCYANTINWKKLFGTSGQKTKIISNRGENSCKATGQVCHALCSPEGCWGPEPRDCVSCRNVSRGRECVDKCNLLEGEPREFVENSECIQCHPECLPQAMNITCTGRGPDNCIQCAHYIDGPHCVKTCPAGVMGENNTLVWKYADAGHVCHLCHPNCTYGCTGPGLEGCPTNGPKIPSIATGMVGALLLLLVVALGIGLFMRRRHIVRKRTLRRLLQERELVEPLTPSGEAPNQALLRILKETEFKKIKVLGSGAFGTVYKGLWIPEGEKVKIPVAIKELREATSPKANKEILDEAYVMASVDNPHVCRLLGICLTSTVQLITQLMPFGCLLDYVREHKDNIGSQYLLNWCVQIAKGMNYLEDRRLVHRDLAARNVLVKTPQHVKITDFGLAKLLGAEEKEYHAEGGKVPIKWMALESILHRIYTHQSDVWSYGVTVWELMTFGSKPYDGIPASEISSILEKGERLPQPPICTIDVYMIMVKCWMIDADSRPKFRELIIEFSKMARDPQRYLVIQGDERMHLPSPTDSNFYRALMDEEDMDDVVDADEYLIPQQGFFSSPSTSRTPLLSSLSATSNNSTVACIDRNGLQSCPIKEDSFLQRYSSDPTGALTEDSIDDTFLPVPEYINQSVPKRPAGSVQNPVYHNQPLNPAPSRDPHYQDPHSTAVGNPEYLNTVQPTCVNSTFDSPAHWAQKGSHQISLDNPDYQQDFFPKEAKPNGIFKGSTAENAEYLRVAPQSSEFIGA
Method: as §1

[4] = target: T4, IKKβ (h) (Homo sapiens, UniProt O14920); test: Upstate kinase panel: IKKβ
T4 construct: purchased Upstate
T4 sequence (O14920 1-756): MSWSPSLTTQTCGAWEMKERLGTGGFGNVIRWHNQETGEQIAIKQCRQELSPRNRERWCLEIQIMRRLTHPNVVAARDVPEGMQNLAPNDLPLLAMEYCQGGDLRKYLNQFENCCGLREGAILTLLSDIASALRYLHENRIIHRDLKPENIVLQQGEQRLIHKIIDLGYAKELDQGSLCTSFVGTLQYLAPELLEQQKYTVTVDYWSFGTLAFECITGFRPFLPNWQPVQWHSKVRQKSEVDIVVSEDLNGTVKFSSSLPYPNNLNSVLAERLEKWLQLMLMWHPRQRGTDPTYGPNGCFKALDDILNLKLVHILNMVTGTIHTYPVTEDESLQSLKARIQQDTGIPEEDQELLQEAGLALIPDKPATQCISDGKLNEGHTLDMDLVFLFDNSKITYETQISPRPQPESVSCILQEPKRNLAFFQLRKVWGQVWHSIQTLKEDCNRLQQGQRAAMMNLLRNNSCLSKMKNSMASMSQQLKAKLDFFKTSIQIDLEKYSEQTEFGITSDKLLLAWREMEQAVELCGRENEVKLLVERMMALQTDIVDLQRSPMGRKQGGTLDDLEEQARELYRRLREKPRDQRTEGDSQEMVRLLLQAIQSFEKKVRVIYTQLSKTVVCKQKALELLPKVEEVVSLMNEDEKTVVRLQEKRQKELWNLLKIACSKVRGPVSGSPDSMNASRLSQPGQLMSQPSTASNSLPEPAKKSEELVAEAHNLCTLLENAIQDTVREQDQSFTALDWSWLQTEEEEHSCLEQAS
Method: as §1

[5] = target: T5, JAK3 (h) (Homo sapiens, UniProt P52333); test: Upstate kinase panel: JAK3
T5 construct: purchased Upstate
T5 sequence (P52333 1-1124): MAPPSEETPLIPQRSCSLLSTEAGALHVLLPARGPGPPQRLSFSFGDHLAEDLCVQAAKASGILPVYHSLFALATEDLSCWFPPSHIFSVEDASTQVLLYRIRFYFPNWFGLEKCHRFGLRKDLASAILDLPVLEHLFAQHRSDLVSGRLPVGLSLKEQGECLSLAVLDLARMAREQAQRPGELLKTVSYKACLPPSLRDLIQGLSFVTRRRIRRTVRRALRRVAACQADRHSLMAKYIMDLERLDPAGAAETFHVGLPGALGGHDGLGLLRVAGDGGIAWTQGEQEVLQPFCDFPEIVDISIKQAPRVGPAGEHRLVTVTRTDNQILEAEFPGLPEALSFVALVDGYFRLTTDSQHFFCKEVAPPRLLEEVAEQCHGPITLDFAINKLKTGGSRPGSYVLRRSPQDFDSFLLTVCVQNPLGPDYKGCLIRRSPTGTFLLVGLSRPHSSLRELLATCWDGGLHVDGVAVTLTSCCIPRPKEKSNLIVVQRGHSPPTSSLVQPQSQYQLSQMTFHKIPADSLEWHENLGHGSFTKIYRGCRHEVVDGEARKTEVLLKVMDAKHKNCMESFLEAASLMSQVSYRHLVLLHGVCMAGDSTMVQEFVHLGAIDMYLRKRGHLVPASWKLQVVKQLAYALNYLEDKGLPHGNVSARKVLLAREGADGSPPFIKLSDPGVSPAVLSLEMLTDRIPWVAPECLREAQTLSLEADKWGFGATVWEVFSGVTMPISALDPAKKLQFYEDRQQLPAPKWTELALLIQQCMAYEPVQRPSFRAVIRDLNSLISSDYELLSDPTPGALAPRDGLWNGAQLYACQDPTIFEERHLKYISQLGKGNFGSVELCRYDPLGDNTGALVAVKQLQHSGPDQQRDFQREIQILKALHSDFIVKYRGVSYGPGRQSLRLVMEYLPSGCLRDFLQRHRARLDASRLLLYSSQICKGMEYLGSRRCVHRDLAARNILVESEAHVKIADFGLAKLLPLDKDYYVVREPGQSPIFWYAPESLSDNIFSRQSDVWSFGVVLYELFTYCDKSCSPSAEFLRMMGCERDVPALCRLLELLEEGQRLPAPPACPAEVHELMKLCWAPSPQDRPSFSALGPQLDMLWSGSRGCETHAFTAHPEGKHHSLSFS
Method: as §1

[6] = target: T6, KDR (h) (Homo sapiens, UniProt P35968); test: Upstate kinase panel: KDR
T6 construct: purchased Upstate
T6 sequence (P35968 20-1356): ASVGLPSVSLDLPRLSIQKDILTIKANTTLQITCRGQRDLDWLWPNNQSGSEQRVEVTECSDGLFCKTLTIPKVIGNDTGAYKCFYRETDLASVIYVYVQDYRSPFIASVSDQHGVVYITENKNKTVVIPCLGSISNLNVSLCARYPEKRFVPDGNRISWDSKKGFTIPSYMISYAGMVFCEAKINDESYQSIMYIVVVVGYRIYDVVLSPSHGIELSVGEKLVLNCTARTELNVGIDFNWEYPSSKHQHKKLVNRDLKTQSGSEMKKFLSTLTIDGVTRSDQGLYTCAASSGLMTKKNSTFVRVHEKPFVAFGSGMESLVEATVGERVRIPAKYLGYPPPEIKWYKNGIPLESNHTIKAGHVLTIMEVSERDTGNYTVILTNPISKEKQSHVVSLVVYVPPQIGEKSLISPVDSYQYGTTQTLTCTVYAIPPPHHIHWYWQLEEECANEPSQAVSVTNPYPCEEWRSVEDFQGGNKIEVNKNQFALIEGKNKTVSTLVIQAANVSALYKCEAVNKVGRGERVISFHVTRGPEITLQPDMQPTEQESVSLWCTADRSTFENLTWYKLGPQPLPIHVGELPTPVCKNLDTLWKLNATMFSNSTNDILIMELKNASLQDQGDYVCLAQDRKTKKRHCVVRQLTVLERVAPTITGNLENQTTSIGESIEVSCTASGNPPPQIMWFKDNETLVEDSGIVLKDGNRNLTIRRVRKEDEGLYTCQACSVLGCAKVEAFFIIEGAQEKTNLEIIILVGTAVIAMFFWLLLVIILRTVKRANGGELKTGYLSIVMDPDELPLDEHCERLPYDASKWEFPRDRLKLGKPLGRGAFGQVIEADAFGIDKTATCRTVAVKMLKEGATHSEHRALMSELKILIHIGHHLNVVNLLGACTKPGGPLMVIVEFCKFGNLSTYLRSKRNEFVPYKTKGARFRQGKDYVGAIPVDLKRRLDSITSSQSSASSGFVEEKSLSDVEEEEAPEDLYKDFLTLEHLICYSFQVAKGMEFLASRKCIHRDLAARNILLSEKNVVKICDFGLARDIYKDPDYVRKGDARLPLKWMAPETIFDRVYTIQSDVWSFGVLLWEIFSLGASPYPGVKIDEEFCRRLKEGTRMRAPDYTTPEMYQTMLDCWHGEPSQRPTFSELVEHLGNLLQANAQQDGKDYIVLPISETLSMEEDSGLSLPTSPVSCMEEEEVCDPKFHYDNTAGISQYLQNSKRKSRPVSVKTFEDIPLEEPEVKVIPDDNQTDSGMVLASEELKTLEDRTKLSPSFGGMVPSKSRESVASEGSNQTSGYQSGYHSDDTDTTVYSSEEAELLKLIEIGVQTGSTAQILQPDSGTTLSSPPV
Method: as §1

[7] = target: T7, MAPK2 (h) (Homo sapiens, UniProt P28482); test: Upstate kinase panel: MAPK2
T7 construct: purchased Upstate
T7 sequence (P28482 whole entry): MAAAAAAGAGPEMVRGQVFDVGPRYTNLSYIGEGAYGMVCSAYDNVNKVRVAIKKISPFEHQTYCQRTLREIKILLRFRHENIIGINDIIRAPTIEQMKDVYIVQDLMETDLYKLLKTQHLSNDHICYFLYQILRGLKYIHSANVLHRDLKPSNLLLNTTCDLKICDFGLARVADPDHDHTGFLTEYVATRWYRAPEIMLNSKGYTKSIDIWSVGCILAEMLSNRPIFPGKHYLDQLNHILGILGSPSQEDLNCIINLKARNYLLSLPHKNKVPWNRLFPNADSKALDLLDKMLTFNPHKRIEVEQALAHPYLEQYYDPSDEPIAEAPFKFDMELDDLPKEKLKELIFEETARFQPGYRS
Method: as §1

[8] = target: T8, PDGFRβ (h) (Homo sapiens, UniProt P09619); test: Upstate kinase panel: PDGFRβ
T8 construct: purchased Upstate
T8 sequence (P09619 33-1106): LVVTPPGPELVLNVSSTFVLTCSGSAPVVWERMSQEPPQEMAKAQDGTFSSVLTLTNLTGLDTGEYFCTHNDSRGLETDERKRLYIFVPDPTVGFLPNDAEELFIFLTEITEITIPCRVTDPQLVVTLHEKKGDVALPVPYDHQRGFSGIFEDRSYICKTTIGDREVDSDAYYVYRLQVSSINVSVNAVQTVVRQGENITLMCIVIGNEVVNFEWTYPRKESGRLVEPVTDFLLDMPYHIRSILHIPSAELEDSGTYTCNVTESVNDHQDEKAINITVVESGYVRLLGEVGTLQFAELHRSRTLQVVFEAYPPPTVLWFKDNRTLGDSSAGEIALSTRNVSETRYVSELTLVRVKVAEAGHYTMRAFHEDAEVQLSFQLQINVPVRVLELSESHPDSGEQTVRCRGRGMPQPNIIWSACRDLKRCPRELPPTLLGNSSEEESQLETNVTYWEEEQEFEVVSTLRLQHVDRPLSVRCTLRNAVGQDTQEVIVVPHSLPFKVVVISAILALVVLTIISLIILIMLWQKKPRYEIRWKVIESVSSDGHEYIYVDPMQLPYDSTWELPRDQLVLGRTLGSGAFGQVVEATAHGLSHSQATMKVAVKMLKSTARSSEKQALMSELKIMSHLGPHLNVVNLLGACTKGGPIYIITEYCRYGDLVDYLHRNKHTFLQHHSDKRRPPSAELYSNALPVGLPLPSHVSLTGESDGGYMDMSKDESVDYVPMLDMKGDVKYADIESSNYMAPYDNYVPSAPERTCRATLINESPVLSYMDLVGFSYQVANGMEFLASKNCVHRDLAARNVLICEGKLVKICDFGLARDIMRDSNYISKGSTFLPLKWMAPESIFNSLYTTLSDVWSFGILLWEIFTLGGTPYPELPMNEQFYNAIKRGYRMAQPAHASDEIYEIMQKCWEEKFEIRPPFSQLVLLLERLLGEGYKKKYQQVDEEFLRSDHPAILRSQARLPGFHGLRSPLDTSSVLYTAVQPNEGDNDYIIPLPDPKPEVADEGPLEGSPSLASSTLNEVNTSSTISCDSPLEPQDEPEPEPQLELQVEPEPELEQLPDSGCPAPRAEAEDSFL
Method: as §1

[9] = target: T9, PKBγ (h) (Homo sapiens, UniProt Q9Y243); test: Upstate kinase panel: PKBγ
T9 construct: purchased Upstate
T9 sequence (Q9Y243 whole entry): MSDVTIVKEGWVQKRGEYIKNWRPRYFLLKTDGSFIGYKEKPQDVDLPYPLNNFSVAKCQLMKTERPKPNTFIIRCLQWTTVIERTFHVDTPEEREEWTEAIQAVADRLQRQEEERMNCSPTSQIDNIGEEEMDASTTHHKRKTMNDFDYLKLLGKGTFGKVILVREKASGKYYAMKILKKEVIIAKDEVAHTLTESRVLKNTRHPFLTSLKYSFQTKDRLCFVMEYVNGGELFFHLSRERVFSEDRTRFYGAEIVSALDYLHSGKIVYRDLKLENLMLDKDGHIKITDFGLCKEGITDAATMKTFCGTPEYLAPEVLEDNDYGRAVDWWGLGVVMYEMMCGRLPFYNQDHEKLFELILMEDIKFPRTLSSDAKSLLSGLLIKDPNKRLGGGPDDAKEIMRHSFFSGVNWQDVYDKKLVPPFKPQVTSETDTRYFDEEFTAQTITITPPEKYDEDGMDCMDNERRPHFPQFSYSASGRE
Method: as §1

[10] = compound 10 μM, 10 μM ATP, read-out: % inhibition at 10 μMol
[11] = compound 1 μM, ATP (200), read-out: % inhibition at 1 μMol
[12] = compound 1 μM, ATP (10), read-out: % inhibition at 1 μMol
[13] = compound 20 μM, 10 μM ATP, read-out: % inhibition at 20 μMol

- inhibition at 10 µM [1, 10]: 94%
- inhibition at 10 µM [2, 10]: 91%
- inhibition at 10 µM [3, 10]: 13%
- inhibition at 10 µM [4, 10]: 0%
- inhibition at 10 µM [5, 10]: 50%
- inhibition at 10 µM [6, 10]: 69%
- inhibition at 10 µM [7, 10]: 3%
- inhibition at 10 µM [8, 10]: 0%
- inhibition at 10 µM [9, 10]: 20%
Compound: CCOC(=O)c1c[nH]c2c(=O)[nH]c3ccc(S(=O)(=O)Nc4ccc(F)cc4)cc3c12 [Compound 12, 8-(4-Fluorophenylsulfamoyl)-4-oxo-4,5-dihydro-3H-pyrrolo[2,3-c]quinoline-1-ethyl carboxylate]

- inhibition at 1 µM ([1]; compound 1 μM, ATP (15), read-out: % inhibition at 1 μMol): 24%
- inhibition at 1 µM [2, 11]: 7%
- inhibition at 1 µM [3, 12]: 3%
- inhibition at 1 µM [4, 12]: 0%
- inhibition at 1 µM [5, 12]: 5%
- inhibition at 1 µM ([6]; compound 1 μM, ATP (90), read-out: % inhibition at 1 μMol): 21%
- inhibition at 1 µM ([7]; compound 1 μM, ATP (155), read-out: % inhibition at 1 μMol): 0%
- inhibition at 1 µM ([8]; compound 1 μM, ATP (120), read-out: % inhibition at 1 μMol): 0%
- inhibition at 1 µM [9, 11]: 2%
Compound: CCOC(=O)c1c[nH]c2c(=O)[nH]c3ccc(-c4cccc(S(C)(=O)=O)c4)cc3c12 [Compound 238, 8-(3-Methanesulfonyl-phenyl)-4-oxo-4,5-dihydro-3H-pyrrolo[2,3-c]quinoline-1-ethyl carboxylate]

- inhibition at 20 µM [1, 13]: 16%
- inhibition at 20 µM [2, 13]: 86%
- inhibition at 20 µM [3, 13]: 19%
- inhibition at 20 µM [4, 13]: 22%
- inhibition at 20 µM [5, 13]: 58%
- inhibition at 20 µM [6, 13]: 100%
- inhibition at 20 µM [7, 13]: 1%
- inhibition at 20 µM [8, 13]: 13%
- inhibition at 20 µM [9, 13]: 5%
Compound: CCOC(=O)c1c[nH]c2c(=O)[nH]c3ccccc3c12 [Compound 1, 4-Oxo-4,5-dihydro-3H-pyrrolo[2,3-c]quinoline-1-ethyl carboxylate]
